How the values were obtained:
KIT kinase = KIT kinase (Homo sapiens (Human), UniProt P10721); assay: Competition binding assay (Kd), KIT; details: competition binding assay
Protocol: In certain embodiments, competition binding assays were performed as described in Fabian et al., Nature Biotechnology 2005, 23, 329-336.
Competition binding assays used herein were developed, validated and performed as described in Fabian et al., Nature Biotechnology 2005, 23, 329-336. Kinases were produced as fusions to T7 phage (See, Fabian et al. or WO04/015142) or alternatively, the kinases were expressed in HEK-293 cells and subsequently tagged with DNA for PCR detection (See, WO08/005,310). […] The liganded beads were blocked with excess biotin and washed with blocking buffer (SeaBlock (Pierce), 1% BSA, 0.05% Tween 20, 1 mM DTT) to remove unbound ligand and to reduce non-specific binding. […] Test compounds were prepared as 100× stocks in DMSO and diluted into the aqueous environment. Kds were determined using an eleven point threefold serial dilutions. DMSO or control compounds were was added to control assays lacking a test compound. […] The kinase concentration in the eluates was measured by quantitative PCR. […]

FLT3 kinase = FLT3 kinase (Homo sapiens (Human), UniProt P36888); assay: Competition binding assay (Kd), FLT3; details: competition binding assay
Sequence of FLT3 kinase (P36888 27-993): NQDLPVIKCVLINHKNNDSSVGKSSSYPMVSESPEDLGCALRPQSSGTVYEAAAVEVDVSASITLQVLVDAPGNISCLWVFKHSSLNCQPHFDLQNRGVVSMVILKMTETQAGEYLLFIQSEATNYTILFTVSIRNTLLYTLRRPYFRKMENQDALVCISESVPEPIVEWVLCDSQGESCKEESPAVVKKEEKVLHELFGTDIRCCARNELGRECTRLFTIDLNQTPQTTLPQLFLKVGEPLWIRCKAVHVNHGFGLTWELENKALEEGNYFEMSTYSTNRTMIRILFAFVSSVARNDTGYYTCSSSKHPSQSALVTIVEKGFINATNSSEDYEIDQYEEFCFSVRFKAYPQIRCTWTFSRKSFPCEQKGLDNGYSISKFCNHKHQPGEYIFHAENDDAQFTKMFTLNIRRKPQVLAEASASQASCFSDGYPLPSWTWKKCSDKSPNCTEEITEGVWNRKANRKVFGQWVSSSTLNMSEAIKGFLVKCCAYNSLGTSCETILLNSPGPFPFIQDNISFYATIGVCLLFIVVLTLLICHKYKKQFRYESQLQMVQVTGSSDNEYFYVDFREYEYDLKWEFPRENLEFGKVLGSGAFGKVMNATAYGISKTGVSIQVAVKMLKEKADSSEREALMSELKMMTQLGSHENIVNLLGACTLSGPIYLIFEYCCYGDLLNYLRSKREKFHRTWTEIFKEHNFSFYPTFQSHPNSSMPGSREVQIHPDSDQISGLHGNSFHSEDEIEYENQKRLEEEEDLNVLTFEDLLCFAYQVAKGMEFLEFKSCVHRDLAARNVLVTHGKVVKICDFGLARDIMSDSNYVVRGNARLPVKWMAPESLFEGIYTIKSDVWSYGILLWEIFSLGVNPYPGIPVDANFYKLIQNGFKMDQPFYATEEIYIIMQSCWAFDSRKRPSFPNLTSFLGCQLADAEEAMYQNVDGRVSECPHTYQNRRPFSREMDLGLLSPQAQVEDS

Sequence of KIT kinase (P10721 26-976): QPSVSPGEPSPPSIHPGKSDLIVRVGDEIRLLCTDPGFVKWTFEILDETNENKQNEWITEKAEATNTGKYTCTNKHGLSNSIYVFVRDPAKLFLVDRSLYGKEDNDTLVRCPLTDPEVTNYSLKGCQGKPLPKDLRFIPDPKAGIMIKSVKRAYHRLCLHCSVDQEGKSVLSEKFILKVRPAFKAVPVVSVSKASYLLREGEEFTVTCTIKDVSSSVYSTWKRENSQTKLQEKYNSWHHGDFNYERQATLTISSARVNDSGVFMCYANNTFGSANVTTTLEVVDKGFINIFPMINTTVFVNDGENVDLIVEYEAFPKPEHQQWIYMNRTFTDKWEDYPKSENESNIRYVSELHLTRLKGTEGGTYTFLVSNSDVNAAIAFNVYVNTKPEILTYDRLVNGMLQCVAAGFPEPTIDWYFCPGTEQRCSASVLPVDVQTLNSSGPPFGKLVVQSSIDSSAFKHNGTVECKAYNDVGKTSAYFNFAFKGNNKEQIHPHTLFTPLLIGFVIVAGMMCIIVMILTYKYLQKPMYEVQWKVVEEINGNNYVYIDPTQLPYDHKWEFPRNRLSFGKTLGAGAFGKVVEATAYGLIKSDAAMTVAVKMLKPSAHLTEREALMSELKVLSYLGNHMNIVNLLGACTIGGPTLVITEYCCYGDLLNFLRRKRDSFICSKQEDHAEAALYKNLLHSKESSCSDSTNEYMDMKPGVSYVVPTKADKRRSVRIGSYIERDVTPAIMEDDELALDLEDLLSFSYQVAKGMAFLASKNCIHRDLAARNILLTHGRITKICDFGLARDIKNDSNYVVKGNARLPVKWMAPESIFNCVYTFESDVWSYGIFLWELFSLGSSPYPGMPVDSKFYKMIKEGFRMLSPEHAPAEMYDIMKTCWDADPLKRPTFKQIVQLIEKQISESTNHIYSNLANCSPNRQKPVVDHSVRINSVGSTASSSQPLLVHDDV

| SMILES | Kd (KIT kinase) | Kd (FLT3 kinase) |
| --- | --- | --- |
| COc1cc2ncc(-c3ccc(CC(=O)Nc4cc(C(C)(C)C(F)(F)F)on4)c(F)c3)cc2cc1OCCN1CC[C@H](O)[C@@H](F)C1 (stereo in doubt) [Example 87, 2-(2-Fluoro-4-{6-[2-(3-fluoro-4-hydroxy-piperidin-1-yl)-ethoxy]-7-methoxy-quinolin-3-yl}-phenyl)-N-[5-(2,2,2-trifluoro-1,1-dimethyl-ethyl)-isoxazol-3-yl]-acetamide] | < 5 nM | < 5 nM |
| Nc1nc2ccccc2nc1-c1ccc(CC(=O)Nc2cc(C3(C(F)(F)F)CC3)on2)cc1 [Example 7, 2-(4-(3-aminoquinoxalin-2-yl)phenyl)-N-(5-(1-(trifluoromethyl)cyclopropyl)isoxazol-3-yl)acetamide] | < 5 nM | < 5 nM |
| Cn1ccc2ncc(-c3ccc(CC(=O)Nc4cc(C5(C(F)(F)F)CC5)on4)cc3)nc21 [Example 9, 2-(4-(5-methyl-5H-pyrrolo[2,3-b]pyrazin-3-yl)phenyl)-N-(5-(1-(trifluoromethyl)cyclopropyl)isoxazol-3-yl)acetamide] | < 5 nM | < 5 nM |
| O=C(Cc1ccc(-c2cnc3ccsc3c2)cc1)Nc1cc(C2(C(F)(F)F)CC2)on1 [Example 10, 2-(4-(thieno[3,2-b]pyridin-6-yl)phenyl)-N-(5-(1-(trifluoromethyl)cyclopropyl)isoxazol-3-yl)acetamide] | < 5 nM | < 5 nM |
| O=C(Cc1ccc(-c2cnc3cccnc3c2)cc1)Nc1cc(C2(C(F)(F)F)CC2)on1 [Example 11, 2-(4-(1,5-naphthyridin-3-yl)phenyl)-N-(5-(1-(trifluoromethyl)cyclopropyl)isoxazol-3-yl)acetamide] | < 5 nM | < 5 nM |
| O=C(Cc1ccc(-c2cnc3ccncc3c2)cc1)Nc1cc(C2(C(F)(F)F)CC2)on1 [Example 12, 2-(4-(1,6-naphthyridin-3-yl)phenyl)-N-(5-(1-(trifluoromethyl)cyclopropyl)isoxazol-3-yl)acetamide] | < 5 nM | < 5 nM |
| COc1cc(OC)c2cc(-c3ccc(CC(=O)Nc4cc(C5(C(F)(F)F)CC5)on4)cc3)cnc2c1 [Example 13, 2-(4-(5,7-dimethoxyquinolin-3-yl)phenyl)-N-(5-(1-(trifluoromethyl)cyclopropyl)isoxazol-3-yl)acetamide] | 5 to 20 nM | < 5 nM |
| O=C(Cc1ccc(-c2cnc3[nH]cnc3n2)cc1)Nc1cc(C2(C(F)(F)F)CC2)on1 [Example 14, 2-(4-(1H-imidazo[4,5-b]pyrazin-5-yl)phenyl)-N-(5-(1-(trifluoromethyl)cyclopropyl)isoxazol-3-yl)acetamide] | < 5 nM | < 5 nM |
| COc1cc2nc(-c3ccc(CC(=O)Nc4cc(C5(C(F)(F)F)CC5)on4)c(F)c3)cnc2cc1OCCN1CCN(C)CC1 [Example 81, 2-(2-fluoro-4-(7-methoxy-6-(2-(4-methylpiperazin-1-yl)ethoxy)quinoxalin-2-yl)phenyl)-N-(5-(1-(trifluoromethyl)cyclopropyl)isoxazol-3-yl)acetamide] | < 5 nM | < 5 nM |
| COc1cc2nc(-c3ccc(CC(=O)Nc4cc(C5(C(F)(F)F)CC5)on4)c(F)c3)cnc2cc1OCCN1CCC(F)(F)C1 [Example 82, 2-(4-(6-(2-(3,3-difluoropyrrolidin-1-yl)ethoxy)-7-methoxyquinoxalin-2-yl)-2-fluorophenyl)-N-(5-(1-(trifluoromethyl)cyclopropyl)isoxazol-3-yl)acetamide] | < 5 nM | < 5 nM |
| COc1cc2nc(-c3ccc(CC(=O)Nc4cc(C5(C(F)(F)F)CC5)on4)c(F)c3)cnc2cc1Br [Example 83, 2-(4-(6-bromo-7-methoxyquinoxalin-2-yl)-2-fluorophenyl)-N-(5-(1-(trifluoromethyl)cyclopropyl)isoxazol-3-yl)acetamide] | < 5 nM | < 5 nM |
| COc1cc2nc(-c3ccc(CC(=O)Nc4cc(C5(C(F)(F)F)CC5)on4)c(F)c3)cnc2cc1CC(O)CO (centres unmarked) [Example 84, 2-(4-(6-(2,3-dihydroxypropyl)-7-methoxyquinoxalin-2-yl)-2-fluorophenyl)-N-(5-(1-(trifluoromethyl)cyclopropyl)isoxazol-3-yl)acetamide] | < 5 nM | < 5 nM |
| COc1cc2nc(-c3ccc(CC(=O)Nc4cc(C5(C(F)(F)F)CC5)on4)c(F)c3)cnc2cc1NCCN1CCOCC1 [Example 85, 2-(2-fluoro-4-(7-methoxy-6-((2-morpholinoethyl)amino)quinoxalin-2-yl)phenyl)-N-(5-(1-(trifluoromethyl)cyclopropyl)isoxazol-3-yl)acetamide] | < 5 nM | < 5 nM |
| COc1cc2nc(-c3ccc(CC(=O)Nc4cc(C(C)(C)C)on4)c(F)c3)cnc2cc1OCCN1CCOCC1 [Example 92, N-(5-(tert-butyl)isoxazol-3-yl)-2-(2-fluoro-4-(7-methoxy-6-(2-morpholinoethoxy)quinoxalin-2-yl)phenyl)acetamide] | < 5 nM |  |
| COc1cc2nc(-c3ccc(CC(=O)Nc4cc(C(C)(C)C(F)(F)F)on4)cc3)cnc2cc1OCCN1CCOCC1 [Example 93, 2-(4-(7-methoxy-6-(2-morpholinoethoxy)quinoxalin-2-yl)phenyl)-N-(5-(1,1,1-trifluoro-2-methylpropan-2-yl)isoxazol-3-yl)acetamide] | < 5 nM | < 5 nM |
| COc1cc2nc(-c3ccc(CC(=O)Nc4cc(C5(C(F)(F)F)CC5)on4)c(F)c3)cnc2cc1OCCN1CCOCC1(C)C [Example 96, 2-(4-(6-(2-(3,3-dimethylmorpholino)ethoxy)-7-methoxyquinoxalin-2-yl)-2-fluorophenyl)-N-(5-(1-(trifluoromethyl)cyclopropyl)isoxazol-3-yl)acetamide] | < 5 nM | < 5 nM |
| CCN1CCN(CCOc2cc3ncc(-c4ccc(CC(=O)Nc5cc(C6(C(F)(F)F)CC6)on5)c(F)c4)nc3cc2OC)CC1 [Example 105, 2-[4-[6-[2-(4-ethylpiperazin-1-yl)ethoxy]-7-methoxy-quinoxalin-2-yl]-2-fluoro-phenyl]-N-[5-[1-(trifluoromethyl)cyclo-propyl]isoxazol-3-yl]acetamide] | < 5 nM | < 5 nM |
| COc1cc2nc(-c3ccc(CC(=O)Nc4cc(C(C)(C)C(F)(F)F)on4)c(F)c3)cnc2cc1OCCN1CCOCC1 [Example 171, 2-[2-fluoro-4-[7-methoxy-6-(2-morpholino-ethoxy)quinoxalin-2-yl]phenyl]-N-[5-(2,2,2-trifluoro-1,1-dimethyl-ethyl)isoxazol-3-yl]acetamide] | < 5 nM |  |
| COc1cc2ncc(-c3ccc(CC(=O)Nc4cc(C5(C(F)(F)F)CC5)nn4C)c(F)c3)nc2cc1OC [Example 172, 2-[4-(6,7-dimethoxyquinoxalin-2-yl)-2-fluoro-phenyl]-N-[2-methyl-5-[1-(trifluoro-methyl)cyclopropyl]pyrazol-3-yl]acetamide] | < 5 nM | < 5 nM |
| COc1cc2ncc(-c3ccc(CC(=O)Nc4cc(C5(C(F)(F)F)CC5)nn4C(C)(C)C)c(F)c3)nc2cc1OC [Example 173, N-[2-tert-butyl-5-[1-(trifluoromethyl)cyclo-propyl]pyrazol-3-yl]-2-[4-(6,7-dimethoxy-quinoxalin-2-yl)-2-fluoro-phenyl]acetamide] | > 50 nM | 5 to 20 nM |
| COc1cc2nc(-c3ccc(CC(=O)Nc4cc(C5(C(F)(F)F)CC5)on4)c(F)c3)cnc2cc1OCCN1CC(C)OC(C)C1 (centres unmarked) [Example 174, 2-[4-[6-[2-(2,6-dimethylmorpholin-4-yl)ethoxy]-7-methoxy-quinoxalin-2-yl]-2-fluoro-phenyl]-N-[5-[1-(trifluoro-methyl)cyclo-propyl]isoxazol-3-yl]acetamide] | < 5 nM | < 5 nM |
| CNCCOc1cc2ncc(-c3ccc(CC(=O)Nc4cc(C5(C(F)(F)F)CC5)on4)c(F)c3)nc2cc1OC [Example 175, 2-[2-fluoro-4-[7-methoxy-6-[2-(methyl-amino)ethoxy]quinoxalin-2-yl]phenyl]-N-[5-[1-(trifluoro-methyl)cyclo-propyl]isoxazol-3-yl]acetamide] | < 5 nM | < 5 nM |
| COc1cc2nc(-c3ccc(CC(=O)Nc4cc(C5(C(F)(F)F)CC5)on4)c(F)c3)cnc2cc1OCCN(C)C(C)=O [Example 176, 2-[4-[6-[2-[acetyl(methyl)amino]ethoxy]-7-methoxy-quinoxalin-2-yl]-2-fluoro-phenyl]-N-[5-[1-(trifluoromethyl)cyclo-propyl]isoxazol-3-yl]acetamide] | < 5 nM | < 5 nM |
| COCCOc1cc2cc(-c3ccc(CC(=O)Nc4cc(C(C)(C)C(F)(F)F)on4)c(F)c3)cnc2cc1OC [Example 177, 2-[2-fluoro-4-[7-methoxy-6-(2-methoxyethoxy)-3-quinolyl]phenyl]-N-[5-(2,2,2-trifluoro-1,1-dimethyl-ethyl)isoxazol-3-yl]acetamide] | < 5 nM | < 5 nM |
| COc1cc2ncc(-c3ccc(CC(=O)Nc4cc(C(C)(C)C(F)(F)F)on4)c(F)c3)cc2cc1OCCO [Example 178, 2-[2-fluoro-4-[6-(2-hydroxyethoxy)-7-methoxy-3-quinolyl]phenyl]-N-[5-(2,2,2-trifluoro-1,1-dimethyl-ethyl)isoxazol-3-yl]acetamide] | < 5 nM | < 5 nM |
| COc1cc2ncc(-c3ccc(CC(=O)Nc4cc(C5(C(F)(F)F)CC5)on4)c(F)c3)cc2cc1OCCO [Example 179, 2-[2-fluoro-4-[6-(2-hydroxyethoxy)-7-methoxy-3-quinolyl]phenyl]-N-[5-[1-(trifluoromethyl)cyclo-propyl]isoxazol-3-yl]acetamide] | < 5 nM | < 5 nM |

From patent publication US9725465B2, “Biaryl acetamide compounds and methods of use thereof” (Ambit Biosciences Corporation, priority 2013, dated 2017)
